Experimental data reported in a melting point compilation (Tetko et al.; mined from patent text by program, amines drawn as free bases though some values may be those of a salt).

melting point [°C]	Compound
115 to 125	CCCCCCCCCCCCCCCCCCOCC(COP(=O)([O-])OCC[N+](C)(C)C)Oc1ccon1 (racemic)
193 to 196	COc1ccc(-n2nc(NC(=O)N(C)C)cc2-c2ccc(OCCNC(N)=O)cc2)cc1
79 to 81	O=C(C=C(c1ccccc1Cl)n1cncn1)c1ccccc1
154 to 155	COC(=O)c1cc2ccc(N3CCOCC3)cc2c2c1C=CC(c1ccc(OC)cc1)(c1ccc(OC)cc1)O2
84 to 114	CCCCCN1C(=O)C(CCC(=O)OC)(NC(=O)c2ccc(Cl)c(Cl)c2)c2ccccc21 (configuration not stated)
133 to 134	O=C(c1ccc(SC2SCC(O)C(O)C2O)cc1)C(F)(F)F (configuration not stated)
129 to 130	COC(=O)CC(=O)c1cc2cc(OC)c(OC)cc2s1
70 to 72	O=c1ccn(C/C=C/COC(c2ccccc2)(c2ccccc2)c2ccccc2)c(=O)[nH]1
120 to 121	O=[N+]([O-])c1cc([N+](=O)[O-])c(N2CCSCC2)c(C(F)(F)F)c1
189 to 191	CC1CC(C)CN(CCNC(=O)Nc2ccccc2)C1 (configuration not stated)
111 to 113	CC(C)(C)c1ccc(C(=O)Nc2ccc(N)cc2)cc1
143 to 145	CN1CCCN(C2=Nc3cc(Cl)ccc3Nc3ccccc32)CC1
158 to 160	CCOC(=O)c1cc(-c2ccc(N)cc2)n(-c2ccc(F)cc2)n1
146 to 148	CN(C)CCCNC(=O)c1c2ccc(Cl)cc2c(-c2ccccc2)n1C
40.5 to 41	CCCCCC1OCc2cc(C#N)ccc2O1 (configuration not stated)
187 to 188	CSc1ccc(C=C2C(C)=C(CC(=O)O)c3cc(F)ccc32)cc1
240	O=C(Nc1ccc(Br)cn1)Nc1cccc2c1C1CC3(CCN1C2=O)SCCS3 (configuration not stated)
> 260	O=C(Nc1ccc(-c2nnn[nH]2)cc1)Oc1ccc([N+](=O)[O-])cc1
238 to 242	Cn1ncnc1-n1cc(C(=O)O)c(=O)c2cc(F)c(Cl)nc21
146	Cc1cc(-n2cncn2)c2cccc(OCc3c(Cl)ccc(S(=O)(=O)N4CCC[C@H]4C(=O)O)c3Cl)c2n1
108 to 110	Cn1cccc1C(=O)c1ccc2ccccc2c1
138 to 140	CC(C)(C)OC(=O)NCCOCCNC1(c2ccccc2Cl)C(=O)Nc2ccc(Cl)cc21 (configuration not stated)
71 to 72	COc1cc(C(C)=O)ccc1OC/C=C/CBr
200 to 201	COc1ccc2c(c1)CC(=O)NC2c1ccc(Cl)cc1 (configuration not stated)
81 to 82	Cc1ccc2c(c1)SC(c1ccc(OCCCCCBr)cc1)C(=O)N2C (configuration not stated)

melting point [°C]	Compound
186 to 188	O=C(Nc1ccc(Cl)cn1)c1cc(Cl)ccc1NCC1CCN(C2CCCCC2)CC1
107 to 109	COc1ccc(Cn2c(=O)c3ccc(Cl)cc3n(CCCCBr)c2=O)cc1
92 to 94	C=CC1(CC(=O)O)CC(C)(C)CC(C)(C)C1
203 to 205	COc1cccc(C=C2NC(=O)N(C)C2=O)c1
141 to 143	O=C1OC(c2ccccc2)=NC1Cc1c[nH]c2ccccc12 (configuration not stated)
73 to 74	Cc1ccc(S(=O)(=O)OCCc2c(F)ccc(F)c2F)cc1
117 to 119	CCCCCNc1n[nH]c(C)c1C(=O)OCC
218 to 220	O=C1Cc2cc(CCN3CCN(c4nsc5ccccc45)CC3)c(Cl)cc2N1
178 to 179	COC(=O)c1cc(C(=O)O)cc(-n2cccc2)c1
195 to 197	Cn1cc(C2=C(c3cn(CCCN)c4ccccc34)C(=O)NC2=O)c2ccccc21
201 to 202	CC(C)(Cc1c(C(C)(C)C)c2cc(OCc3ccc4ccccc4n3)ccc2n1Cc1ccc(Cl)cc1)C(=O)O
80 to 115	CCn1c(C)c(C2(N(c3ccccc3)c3ccccc3C(=O)OC)OC(=O)c3ccccc32)c2ccccc21 (configuration not stated)
208 to 211	CC(C)(Cc1cc2nc(Cl)ccc2n1S(=O)(=O)c1ccccc1)C(=O)O
158 to 159	O=C(NCCC12CC3CC(CC(C3)C1)C2)c1cccc(Cl)c1Cl
128 to 132	CCc1cc2c(s1)C(C(=O)O)CC2=O (configuration not stated)
> 200	Clc1cccc(Cl)c1CN1CCNc2ncc(I)cc21
78 to 79	CCOC(=O)N1CCCc2cc(C(=O)CCCl)ccc21
214 to 215	O=C(O)COc1nc2cc(Cl)c3cccnc3c2o1
92 to 93	N#CC(=NNCc1c(Cl)cc(C(F)(F)F)cc1Cl)c1ccc(C#N)cc1
> 280	O=[N+]([O-])c1ccc(NN=C2c3ncc(Cl)cc3C=CC2Cl)c([N+](=O)[O-])c1 (configuration not stated)
121 to 123	O[C@@H]1CNCC[C@H]1Oc1ccc(F)cc1 (relative stereo)
107 to 108	CC(C)SC[C@@H](C[C@H](O)[C@H](CC1CCCCC1)C(=O)OC(C)(C)C)C(C)C
138 to 139	CC(=O)c1cccc(N2CCN(CCCCOc3ccc4c(n3)NC(=O)CC4)CC2)c1Cl
265 to 266	O=C(O)c1ccc2cccc(Br)c2c1
189	Cc1c(NC(=O)c2ccc(OC[C@@H]3CCCO3)cc2)ccc2c1cc(CNC1CCCC1)n2C

melting point [°C]	Compound
136 to 138	O=C(O)C(=O)CC(=O)c1cn(CCCCc2ccccc2)c2ccccc2c1=O
128 to 130	COC(=O)c1ccc2c(c1)SCCC2NC(=O)OCc1ccccc1 (configuration not stated)
104 to 106	CN1CCN(c2ccccc2CC2CCN(c3ccccc3)C2=O)CC1 (configuration not stated)
122 to 125	COC(=O)CCCOc1ccc2ccc(O)cc2c1
137 to 152	O=C(c1cccc(-c2ccccc2)c1C(=O)C(Cl)(Cl)Cl)C(Cl)(Cl)Cl
132 to 134	CC1(C)CC2(CC(C)(C)N1)NC(=O)N(CC(O)COC(=O)CCCCC(=O)OCC(O)CN1C(=O)NC3(CC(C)(C)NC(C)(C)C3)C1=O)C2=O (configuration not stated)
264 to 265	CCCn1c(=O)c2c(nn3cc(C4CC4)[nH]c23)n(Cc2ccccc2)c1=O
134 to 135	C=CCON=C(CC)C1=C(O)CC(c2ccc(NS(C)(=O)=O)cc2)CC1=O (configuration not stated)
200 to 202	CC(CCCc1ccccc1)c1cc2oc(=O)c3c(c2cc1O)C(=O)CCC3 (configuration not stated)
65 to 67	ClC=C(c1ccc(Cl)cc1)c1ccc(Cl)cc1
99 to 100	COC(=O)c1nc(Cl)sc1-c1cccc(F)c1
230 to 234	COc1ccc2c(c1)C(=O)N(c1ccc3c(ccn3C)n1)C2
186 to 187	CN1CCN(C(=O)c2ccc(-c3[nH]nc4c3C(=O)c3c(NC(=O)NN5CCOCC5)cccc3-4)s2)CC1
165 to 166	COc1ccc(-c2nc(CCO)nc3cc(OC)c(OC)cc23)cc1OC
188 to 190	CC(C)=CCCC(C)C1CCC2C3CC(O)C4CC(O)CCC4(C)C3CCC12C (configuration not stated)
52 to 54	COC1=C(OC)C(=O)C(CO)=C(C)C1=O
202 to 204	CCCN(Cc1ccc(-c2ccccc2-c2nnn[nH]2)cc1)c1ncccc1C(=O)O
303 to 305	COc1cc(OC)c2c(=O)[nH]c(-c3ccc(O)cc3)nc2c1
169 to 171	OC(CC1CCNCC1)(c1ccc(F)cc1)c1ccc(F)cc1
126 to 128	CC(=O)C1(c2ccc(Br)cc2)C=CC=CC1 (configuration not stated)
201 to 205	O=C(Oc1c(Br)c(Br)c(Br)c(Br)c1Br)c1ccccc1CCl
281	O=c1[nH]c(=O)c2cc(C(c3ccccc3)n3cncn3)ccc2[nH]1 (configuration not stated)
87 to 88	CCOC(=O)c1cc(CC)sc1Nc1cc(F)ccc1[N+](=O)[O-]
149 to 150	CC(C)(C)C1Cn2c(nc3ccccc32)-c2ccccc2O1 (configuration not stated)
294 to 298	Cc1c(F)c(F)cc2c1c(=O)c(C(=O)O)cn2C1CC1

melting point [°C]	Compound
129 to 130	CSN=C1C(=O)N2C1SC(C)(C)C2C(=O)OCC(Cl)(Cl)Cl (configuration not stated)
74 to 76	OCCOc1ccc(Oc2ccc(F)cc2)cc1
224 to 226	OCc1nc2ccc(Cl)nc2[nH]1
283 to 285	Cn1nc2c(N)nc3ccccc3c2c1CC1(F)CCN(S(C)(=O)=O)CC1
152 to 154	CS(=O)(=O)c1ccc(-c2cc(C(=O)CCCO[N+](=O)[O-])nn2-c2ccc(C(F)(F)F)cc2)cc1
207 to 209	O=c1ccc(-c2cccc(F)c2)n[nH]1
85 to 90	O=C(Nc1ncnc2c1ncn2C[C@@H]1O[C@H](CO)[C@@H](O)[C@H]1O)c1ccccc1
85 to 87	C=C(Br)CCC(=O)NC(C(=O)OCC)C(=O)OCC
169 to 171	COC(=O)c1c(Br)c(F)cc2[nH]ncc12
150 to 157	CC12C=CCC1C1CC(O)c3cc(O)ccc3C1CC2 (configuration not stated)
131 to 133	O=S(=O)(NCCCCOc1ccc(-n2ccnc2)cc1)c1cccc2cccnc12
250	CCOP(=O)(OCC)C1CCn2c(=O)c(=O)[nH]c3cc(C(F)(F)F)cc1c32 (configuration not stated)
135 to 137	CC(C)(C(=O)O)c1ccc(C(O)CCCN2CCC(=C3c4ccccc4CCc4ccccc43)CC2)cc1 (configuration not stated)
251 to 253	CN1C(=O)CCCc2cc(Nc3ncc(Cl)c(NC4CCCCC4C(N)=O)n3)ccc21 (configuration not stated)
120	CC(=O)Oc1ccc2cc(NCCCCNC(=O)OC(C)(C)C)c(=O)oc2c1
148	COc1cc(-c2ccc(Cl)cc2)cc2oc(=O)c(C)c(C)c12
151 to 152	O=Cc1cccc(-c2cc(-c3ccc(C(F)(F)F)cc3)no2)c1
144	COC(=O)CC1OCCN(CCc2c[nH]c3ccccc23)C1=O (configuration not stated)
178 to 180	CC(=O)NNc1ccc(Cl)c(CN2OCC(C)(C)C2=O)c1
146	O=S1(=O)NCCNc2ccc(Oc3cccc(CO)c3)cc21
146 to 148	CC(=O)Oc1ccc(Cl)cc1C(=O)O
57 to 58	COc1cccc2c1OC(CO)CC2 (configuration not stated)
116 to 118	CCC(C(C)C)C(OC(C)=O)C(OC(C)=O)C(C)C1CCC2C3CC(=O)C4CC=CCC4(C)C3CCC12C (configuration not stated)

Compound	melting point [°C]
C=CCc1c(OC)cc(Cc2cnc(N)nc2N)cc1OC	185 to 187
O=C(Nc1ccc(Cl)c(Cl)c1)OC1CN2CCC1CC2 (configuration not stated)	181 to 184
Cc1cccc(-n2c(=O)[nH]c3ccc(F)cc3c2=O)c1	278 to 279
CONC(NC(C)=O)C(=O)NCc1ccccc1 (configuration not stated)	95 to 97
